Reference: PMC7504051, “Ilimaquinone Induces the Apoptotic Cell Death of Cancer Cells by Reducing Pyruvate Dehydrogenase Kinase 1 Activity” (International Journal of Molecular Sciences, 2020)

Columns and labels:
[1] = biological target: T1, pyruvate dehydrogenase kinase 1 (PDK1) (Homo sapiens, UniProt Q15118); test: isothermal titration calorimetry (MicroCal AutoITC200); supported by (α-32P)ATP displacement from purified PDK1; assay type: binding
T1 construct: His-tagged PDK1

[2] = biological target: T1, pyruvate dehydrogenase kinase 1 (PDK1); test: radiolabelled (α-32P)ATP binding to bead-bound purified PDK1, scintillation counting, unlabelled ATP as competitor

T1 sequence (Q15118 29-436): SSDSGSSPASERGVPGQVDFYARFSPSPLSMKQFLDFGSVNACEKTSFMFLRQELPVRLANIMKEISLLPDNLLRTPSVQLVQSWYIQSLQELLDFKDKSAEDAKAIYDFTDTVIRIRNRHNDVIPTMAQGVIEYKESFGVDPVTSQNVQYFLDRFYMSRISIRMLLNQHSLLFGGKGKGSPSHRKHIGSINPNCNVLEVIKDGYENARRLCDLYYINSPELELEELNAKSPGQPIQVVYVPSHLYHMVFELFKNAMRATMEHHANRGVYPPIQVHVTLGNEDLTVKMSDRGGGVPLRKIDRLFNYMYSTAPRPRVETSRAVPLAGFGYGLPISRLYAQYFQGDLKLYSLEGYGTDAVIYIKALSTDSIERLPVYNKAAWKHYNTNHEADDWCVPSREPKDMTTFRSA

SMILES: C=C1CCC[C@H]2[C@](C)(CC3=C(O)C(=O)C=C(OC)C3=O)[C@@H](C)CC[C@]12C [IQ, ilimaquinone]
- Kd [1]: 14.6 µM

SMILES: Nc1ncnc2c1ncn2[C@@H]1O[C@H](COP(=O)(O)OP(=O)(O)OP(=O)(O)O)[C@@H](O)[C@H]1O [ATP]
- radiolabelled (α-32P)ATP binding to bead-bound purified PDK1, scintillation coun [2]: The binding of ATP to PDK1 in the presence of IQ was determined using α^32-labeled ATP.
